Measured values reported in BindingDB's records for PubMed 35176561 (Shenyang Pharmaceutical University, 2022).

Target: Amyloid-beta precursor protein (Homo sapiens, UniProt P05067)
Experiment: Inhibition of amyloid beta 42 (unknown origin) secretion

Chain of Amyloid-beta precursor protein (P05067 whole entry): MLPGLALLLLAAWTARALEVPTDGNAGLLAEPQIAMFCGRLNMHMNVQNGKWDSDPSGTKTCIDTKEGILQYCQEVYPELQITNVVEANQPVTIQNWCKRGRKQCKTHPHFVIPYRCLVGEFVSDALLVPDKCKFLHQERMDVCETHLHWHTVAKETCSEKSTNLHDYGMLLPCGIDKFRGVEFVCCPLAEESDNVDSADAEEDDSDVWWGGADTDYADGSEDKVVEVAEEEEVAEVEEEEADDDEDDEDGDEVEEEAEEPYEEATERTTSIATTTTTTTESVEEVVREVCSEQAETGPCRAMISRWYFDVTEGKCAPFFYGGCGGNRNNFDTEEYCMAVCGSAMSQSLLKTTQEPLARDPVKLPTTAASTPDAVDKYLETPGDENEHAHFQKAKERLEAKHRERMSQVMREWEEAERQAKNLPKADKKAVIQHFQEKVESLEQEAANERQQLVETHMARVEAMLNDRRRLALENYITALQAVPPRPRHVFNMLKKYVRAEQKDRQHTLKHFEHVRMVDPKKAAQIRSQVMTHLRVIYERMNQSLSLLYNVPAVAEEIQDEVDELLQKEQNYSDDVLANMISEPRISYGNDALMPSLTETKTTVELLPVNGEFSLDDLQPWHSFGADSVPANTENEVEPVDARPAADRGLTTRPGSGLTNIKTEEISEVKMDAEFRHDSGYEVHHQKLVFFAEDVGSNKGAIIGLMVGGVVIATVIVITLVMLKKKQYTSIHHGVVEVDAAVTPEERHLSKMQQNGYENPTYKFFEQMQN

| SMILES | IC50 |
| --- | --- |
| COc1nc(-c2cc(C)c(N[C@@H](C)c3cc(F)cc(F)c3)nn2)ccc1-n1cnc(C)c1 | 4.1 nM |
| COc1nc(-c2cc(C)c(N[C@@H](C)c3cc(F)c(F)c(F)c3)nn2)ccc1-n1cnc(C)c1 | 5.3 nM |
